# Laboratory results taken from patent US6355799B1, “Substituted benzene compounds, process for their preparation, and herbicidal and defoliant compositions containing them” (ISK Americas Incorporated, priority 1997, dated 2002).
# Tests used:
# Format in all cases: in vivo
# [1] = tested on: upland rice (Oryza sp., var. Tebonnet, RICE); assay: Post-emerge test, crop safety; conditions: phytotoxicity rating 0-100 (0 no damage, 100 complete death), 14 days after application
# Procedure, shortened: (§1)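 Visual ratings on a 0-100 scale (0 no damage, 100 all plants dead) were taken at 14 days after treatment. Rates of 15-1000 g ai/ha in acetone, 187 l/ha, were sprayed onto soil one day after planting (pre-emerge) or onto 2-3 leaf plants with 0.25% v/v surfactant (post-emerge).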
# [2] = tested on: field corn (Zea mays L., var. Dekalb 535, CORN); assay: Post-emerge test, crop safety; conditions: phytotoxicity rating 0-100 (0 no damage, 100 complete death), 14 days after application
# Procedure, shortened: as §1
# [3] = tested on: redroot pigweed (Amaranthus retroflexus, AMARE); assay: Pre-emerge test, greenhouse herbicide activity screening; conditions: pre-emerge, rated 14 days after application, 0 = no damage, 100 = complete death
# Procedure, shortened: (§2)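 Compounds in acetone were track-sprayed at 15-1000 g ai/ha (187 l/ha) on sandy loam pots: pre-emerge one day after seeding, post-emerge at 2-3 leaf stage with 0.25% v/v non-ionic surfactant. Phytotoxicity was rated 14 days later on a 0 (no damage) to 100 (complete death) scale.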
# [4] = tested on: lambsquarters (Chenopodium album, CHEAL); assay: as above; conditions: pre-emerge, rated 14 days after application, 0 = no damage, 100 = complete death
# Procedure, shortened: as §1
# [5] = tested on: johnsongrass (Sorghum halepense, SORHA); assay: as above; conditions: pre-emerge, rated 14 days after application, 0 = no damage, 100 = complete death
# Procedure, shortened: as §1
# [6] = tested on: ivyleaf morningglory (Ipomoea hederacea, IPOHE); assay: as above; conditions: pre-emerge, rated 14 days after application, 0 = no damage, 100 = complete death
# Procedure, shortened: as §1
# [7] = tested on: green foxtail (Setaria viridis, SETVI); assay: as above; conditions: pre-emerge, rated 14 days after application, 0 = no damage, 100 = complete death
# Procedure, shortened: as §1
# [8] = tested on: velvetleaf (Abutilon theophrasti, ABUTH); assay: as above; conditions: pre-emerge, rated 14 days after application, 0 = no damage, 100 = complete death
# Procedure, shortened: as §1
# [9] = tested on: barnyardgrass (Echinochloa crus-galli, ECHCG); assay: as above; conditions: pre-emerge, rated 14 days after application, 0 = no damage, 100 = complete death
# Procedure, shortened: as §1
# [10] = tested on: sicklepod (Cassia obtusifolia, CASOB); assay: as above; conditions: pre-emerge, rated 14 days after application, 0 = no damage, 100 = complete death
# Procedure, shortened: as §1
# [11] = tested on: large crabgrass (Digitaria sanguinalis, DIGSA); assay: as above; conditions: pre-emerge, rated 14 days after application, 0 = no damage, 100 = complete death
# Procedure, shortened: as §1
# [12] = tested on: upland rice (Oryza sp., var. Tebonnet, RICE); assay: Pre-emerge test, crop safety; conditions: pre-emerge, rated 14 days after application, 0 = no damage, 100 = complete death
# Procedure, shortened: as §2
# [13] = tested on: field corn (Zea mays L., var. Dekalb 535, CORN); assay: Pre-emerge test, crop safety; conditions: pre-emerge, rated 14 days after application, 0 = no damage, 100 = complete death
# Procedure, shortened: as §2
# [14] = tested on: lambsquarters (Chenopodium album, CHEAL); assay: Post-emerge test, greenhouse herbicide activity screening; conditions: phytotoxicity rating 0-100 (0 no damage, 100 complete death), 14 days after application
# Procedure, shortened: (§3)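 Plants grown in 10 cm pots of sandy loam mix received acetone-dissolved compounds through a moving flat-fan nozzle. Doses ranged from 15 to 1000 g ai/ha. Pre-emerge pots were seeded one day earlier, post-emerge pots 8–21 days earlier. Fourteen days on, each pot was graded 0–100 for damage.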
# [15] = tested on: johnsongrass (Sorghum halepense, SORHA); assay: as above; conditions: phytotoxicity rating 0-100 (0 no damage, 100 complete death), 14 days after application
# Procedure, shortened: as §3
# [16] = tested on: ivyleaf morningglory (Ipomoea hederacea, IPOHE); assay: as above; conditions: phytotoxicity rating 0-100 (0 no damage, 100 complete death), 14 days after application
# Procedure, shortened: as §3
# [17] = tested on: green foxtail (Setaria viridis, SETVI); assay: as above; conditions: phytotoxicity rating 0-100 (0 no damage, 100 complete death), 14 days after application
# Procedure, shortened: as §3
# [18] = tested on: redroot pigweed (Amaranthus retroflexus, AMARE); assay: as above; conditions: phytotoxicity rating 0-100 (0 no damage, 100 complete death), 14 days after application
# Procedure, shortened: as §3
# [19] = tested on: velvetleaf (Abutilon theophrasti, ABUTH); assay: as above; conditions: phytotoxicity rating 0-100 (0 no damage, 100 complete death), 14 days after application
# Procedure, shortened: as §3
# [20] = tested on: barnyardgrass (Echinochloa crus-galli, ECHCG); assay: as above; conditions: phytotoxicity rating 0-100 (0 no damage, 100 complete death), 14 days after application
# Procedure, shortened: as §3
# [21] = tested on: sicklepod (Cassia obtusifolia, CASOB); assay: as above; conditions: phytotoxicity rating 0-100 (0 no damage, 100 complete death), 14 days after application
# Procedure, shortened: as §3
# [22] = tested on: large crabgrass (Digitaria sanguinalis, DIGSA); assay: as above; conditions: phytotoxicity rating 0-100 (0 no damage, 100 complete death), 14 days after application
# Procedure, shortened: as §3
smiles,measurement,setting,value
Cn1c(C(F)(F)F)cc(=O)n(-c2c(F)cc(Cl)c(OCC#N)c2N)c1=O [Compound 1-18],Post-emerge Herbicidal Activity RICE (crop damage),[1]; 63 g ai/ha,0
same,Post-emerge Herbicidal Activity RICE (crop damage),[1]; 250 g ai/ha,0
same,Post-emerge Herbicidal Activity CORN (crop damage),[2]; 63 g ai/ha,0
same,Post-emerge Herbicidal Activity CORN (crop damage),[2]; 250 g ai/ha,0
same,"Pre-emerge Herbicidal Activity AMARE (phytotoxicity rating, scale 0-100)",[3]; 63 g ai/ha,100
same,"Pre-emerge Herbicidal Activity AMARE (phytotoxicity rating, scale 0-100)",[3]; 250 g ai/ha,100
same,"Pre-emerge Herbicidal Activity CHEAL (phytotoxicity rating, scale 0-100)",[4]; 63 g ai/ha,100
same,"Pre-emerge Herbicidal Activity CHEAL (phytotoxicity rating, scale 0-100)",[4]; 250 g ai/ha,100
same,"Pre-emerge Herbicidal Activity SORHA (phytotoxicity rating, scale 0-100)",[5]; 63 g ai/ha,70
same,"Pre-emerge Herbicidal Activity SORHA (phytotoxicity rating, scale 0-100)",[5]; 250 g ai/ha,100
same,"Pre-emerge Herbicidal Activity IPOHE (phytotoxicity rating, scale 0-100)",[6]; 63 g ai/ha,100
same,"Pre-emerge Herbicidal Activity IPOHE (phytotoxicity rating, scale 0-100)",[6]; 250 g ai/ha,100
same,"Pre-emerge Herbicidal Activity SETVI (phytotoxicity rating, scale 0-100)",[7]; 63 g ai/ha,95
same,"Pre-emerge Herbicidal Activity SETVI (phytotoxicity rating, scale 0-100)",[7]; 250 g ai/ha,99
same,"Pre-emerge Herbicidal Activity ABUTH (phytotoxicity rating, scale 0-100)",[8]; 63 g ai/ha,100
same,"Pre-emerge Herbicidal Activity ABUTH (phytotoxicity rating, scale 0-100)",[8]; 250 g ai/ha,100
same,"Pre-emerge Herbicidal Activity ECHCG (phytotoxicity rating, scale 0-100)",[9]; 63 g ai/ha,0
same,"Pre-emerge Herbicidal Activity ECHCG (phytotoxicity rating, scale 0-100)",[9]; 250 g ai/ha,80
same,"Pre-emerge Herbicidal Activity CASOB (phytotoxicity rating, scale 0-100)",[10]; 63 g ai/ha,70
same,"Pre-emerge Herbicidal Activity CASOB (phytotoxicity rating, scale 0-100)",[10]; 250 g ai/ha,100
same,"Pre-emerge Herbicidal Activity DIGSA (phytotoxicity rating, scale 0-100)",[11]; 63 g ai/ha,70
same,"Pre-emerge Herbicidal Activity DIGSA (phytotoxicity rating, scale 0-100)",[11]; 250 g ai/ha,90
same,"Pre-emerge crop damage RICE (phytotoxicity rating, scale 0-100)",[12]; 63 g ai/ha,30
same,"Pre-emerge crop damage RICE (phytotoxicity rating, scale 0-100)",[12]; 250 g ai/ha,70
same,"Pre-emerge crop damage CORN (phytotoxicity rating, scale 0-100)",[13]; 63 g ai/ha,40
same,"Pre-emerge crop damage CORN (phytotoxicity rating, scale 0-100)",[13]; 250 g ai/ha,90
same,Post-emerge Herbicidal Activity CHEAL,[14]; 63 g ai/ha,70
same,Post-emerge Herbicidal Activity CHEAL,[14]; 250 g ai/ha,100
same,Post-emerge Herbicidal Activity SORHA,[15]; 63 g ai/ha,50
same,Post-emerge Herbicidal Activity SORHA,[15]; 250 g ai/ha,50
same,Post-emerge Herbicidal Activity IPOHE,[16]; 63 g ai/ha,80
same,Post-emerge Herbicidal Activity IPOHE,[16]; 250 g ai/ha,100
same,Post-emerge Herbicidal Activity SETVI,[17]; 63 g ai/ha,70
same,Post-emerge Herbicidal Activity SETVI,[17]; 250 g ai/ha,70
same,Post-emerge Herbicidal Activity AMARE,[18]; 63 g ai/ha,70
same,Post-emerge Herbicidal Activity AMARE,[18]; 250 g ai/ha,100
same,Post-emerge Herbicidal Activity ABUTH,[19]; 63 g ai/ha,100
same,Post-emerge Herbicidal Activity ABUTH,[19]; 250 g ai/ha,100
same,Post-emerge Herbicidal Activity ECHCG,[20]; 63 g ai/ha,0
same,Post-emerge Herbicidal Activity ECHCG,[20]; 250 g ai/ha,0
same,Post-emerge Herbicidal Activity CASOB,[21]; 63 g ai/ha,30
same,Post-emerge Herbicidal Activity CASOB,[21]; 250 g ai/ha,95
same,Post-emerge Herbicidal Activity DIGSA,[22]; 63 g ai/ha,50
same,Post-emerge Herbicidal Activity DIGSA,[22]; 250 g ai/ha,50
